From the NIST ThermoML archive (doi:10.1007/s10765-009-0593-3)

Assay: xn = mol fraction of the nth substance listed
Details: 101 kPa, Liquid; for speed of sound: Pulse-echo method

CCCOCC(C)OCC(C)O (stereo not given) [1-(1-methyl-2-propoxyethoxy)-2-propanol] + CCCCNCCCC
Details | mass density, 288.15 K [kg/m3] | mass density, 293.15 K [kg/m3] | mass density, 298.15 K [kg/m3] | mass density, 303.15 K [kg/m3] | mass density, 308.15 K [kg/m3] | speed of sound, 288.15 K [m/s] | speed of sound, 293.15 K [m/s] | speed of sound, 298.15 K [m/s] | speed of sound, 303.15 K [m/s] | speed of sound, 308.15 K [m/s]
x1 = 0.123 | 792.458 | 788.243 | 783.999 | 779.716 | 775.539 | 1291.2 | 1271.6 | 1252 | 1232.1 | 1212.2
x1 = 0.1582 | 798.993 | 794.736 | 790.406 | 786.126 | 781.949 | 1293.2 | 1273.2 | 1253.7 | 1233.9 | 1214
x1 = 0.1913 | 804.954 | 800.654 | 796.281 | 791.94 | 787.756 | 1294.9 | 1274.7 | 1255.1 | 1235.5 | 1215.5
x1 = 0.2541 | 815.956 | 811.61 | 807.16 | 802.761 | 798.492 | 1297.6 | 1277.1 | 1257.5 | 1238.1 | 1218.1
x1 = 0.3195 | 827.1 | 822.71 | 818.293 | 813.903 | 809.461 | 1299.8 | 1279.3 | 1259.6 | 1240.4 | 1220.4
x1 = 0.3623 | 834.198 | 829.803 | 825.41 | 821.074 | 816.52 | 1300.9 | 1280.5 | 1260.8 | 1241.7 | 1221.7
x1 = 0.4155 | 842.79 | 838.381 | 834.053 | 829.782 | 825.107 | 1302 | 1281.8 | 1262 | 1243 | 1223.1
x1 = 0.4543 | 848.877 | 844.447 | 840.151 | 835.948 | 831.19 | 1302.6 | 1282.7 | 1262.9 | 1243.9 | 1223.9
x1 = 0.4974 | 855.422 | 850.98 | 846.721 | 842.533 | 837.752 | 1303.2 | 1283.5 | 1263.7 | 1244.7 | 1224.7
x1 = 0.5491 | 863.031 | 858.573 | 854.308 | 850.092 | 845.325 | 1303.6 | 1284.3 | 1264.5 | 1245.6 | 1225.6
x1 = 0.6027 | 870.648 | 866.201 | 861.902 | 857.606 | 852.894 | 1304 | 1285.1 | 1265.2 | 1246.4 | 1226.4
x1 = 0.6687 | 879.855 | 875.389 | 871.011 | 866.586 | 861.99 | 1304.3 | 1285.8 | 1266 | 1247.1 | 1227.2
x1 = 0.6962 | 883.669 | 879.204 | 874.806 | 870.321 | 865.762 | 1304.4 | 1286 | 1266.3 | 1247.4 | 1227.5
x1 = 0.7504 | 891.256 | 886.786 | 882.325 | 877.785 | 873.301 | 1304.6 | 1286.4 | 1266.8 | 1248 | 1228
x1 = 0.7997 | 898.225 | 893.775 | 889.311 | 884.771 | 880.284 | 1304.8 | 1286.7 | 1267.3 | 1248.4 | 1228.5
x1 = 0.8657 | 907.649 | 903.208 | 898.805 | 894.377 | 889.838 | 1305.3 | 1287 | 1267.9 | 1249 | 1229.1
x1 = 0.8963 | 911.923 | 907.504 | 903.128 | 898.789 | 894.205 | 1305.5 | 1287.2 | 1268.2 | 1249.3 | 1229.4
x1 = 0.9589 | 920.017 | 915.65 | 911.3 | 907.024 | 902.428 | 1306.3 | 1287.4 | 1268.8 | 1250 | 1230
